# Assay results: patent US20050100891A1, “Gene expression profile for KSHV infection and methods for treating same” (priority 2000, published 2005)
# Entries after “also recorded” stand apart in the source; their conditions may differ.
# Assays:
# ORF 65 (lytic gene) = test: RT-PCR of late (lytic) gene ORF 65 in PMA-induced KSHV-infected DMVEC; type: cell-based; details: for late gene (ORF 65) expression: compound 1 hour before PMA, 48 hours, concentration not given
# Method: (§1) KSHV genes ORF 64 and K12 (kaposin) were used as reverse transcriptase PCR (RT-PCR) templates as described previously^(43). ORF 65 sequences were amplified with primers 5-[…] (SEQ ID NO: 5) and 5′-[…] (SEQ ID NO: 6). Cellular genes (HPRT, GAPDH, or -actin) were amplified from each sample as a control for cDNA synthesis. PCR products were visualized following electrophoresis on agarose-ethidium bromide gels.
# (§2) Cells were treated with inhibitory compounds or peptides for one hour and lytic replication was induced by PMA treatment for 48 hours. Ganciclovir was used as control compound for inhibition of KSHV-replication and late gene expression^(10). After 48 hours, cells were harvested and expression of the latent gene K12 as well as the late gene ORF 65 was analyzed by RT-PCR. For control, expression of cellular genes α-actin or HPRT was monitored. […] However, both Ht31 and Haloperidol inhibited late gene expression, but not latent gene expression. Since both inhibitors potentially interfere with PKC signaling, we examined whether Ht31 or Haloperidol would inhibit the PMA-mediated induction of immediate early genes. […] In addition, the peptide Ht-31 inhibits the association between A kinase anchoring proteins (AKAPs) and PKA (21, 64). […] Therefore we conclude that the signal transduction pathways regulated by the type I sigma receptor and AKAPs are required for lytic progression of KSHV.
# There is no specific inhibitor of Gravin identified, however the Ht-31 peptide derived from the PKA R-II binding domain of the human thyroid AKAP inhibits the AKAP/PKA interactions in vivo and in vitro ^(21, 64). A stearated version of this peptide is membrane permeable and can block the AKAP/PKA interaction in tissue culture. A requirement for PKA signaling can be inferred from the up-regulation of Gravin, and to further investigate the requirement for the AKAP/PKA interaction for KSHV late gene expression, infected and uninfected cells were treated with stearated Ht-31 at two concentrations (FIG. 7B). […] A stearated control peptide that is unable to interact with PKA, Ht-31P, had no effect on late gene expression (FIG. 7B, lanes 4-5). […] It is not possible to conclude whether the inhibitory effect of Ht-3 1 occurs through Gravin or any other AKAP, since Ht-31 inhibits a wide range of AKAP/PKA interactions.
# (§3) The type I Sigma receptor is antagonized by the antipsychotic drug Haloperidol^(66). To investigate the requirement of Sigma receptor function for late gene expression, cells were treated with 5 μM Haloperidol for 1 hour prior to PMA addition. […] The inhibition of late gene expression was more complete with Haloperidol than with Ganciclovir (FIG. 7D, lanes 5-6). In contrast, the purine […] phosphorylase inhibitor 8-aminoguanosine (8-AMG) had no effect on viral gene expression (FIG. 7D, lane 4).
# K12 (latent gene) = test: RT-PCR of latent gene K12 in PMA-induced KSHV-infected DMVEC; type: cell-based
# Method: as §1, §2, §3
# immediate early gene K3 = test: PMA-mediated induction of immediate early gene K3; type: cell-based, KSHV
# Epstein-Barr Virus (EBV) = details: cited from earlier work
# Uninfected DMVEC = tested on: Uninfected DMVEC
# Method: (§4) To promote a transformed phenotype, KSHV-infected DMVEC were cultured post-confluency in 35 mm Primaria culture dishes. […] Cells were examined daily for evidence of phenotypic change using a phase-contrast microscope and results recorded photographically.
# (§5) To directly test whether KSHV-induction of c-Kit is necessary for virus-induced transformation, the consequence of inhibiting c-Kit signaling in KSHV-transformed DMVEC was evaluated.
# KSHV-infected DMVEC [1] = test: Transformation assay (focus formation, disorganized growth) in post-confluent culture; type: cell-based, human
# Method: as §4, §5
# In this approach, a dominant negative c-Kit protein lacking the cytoplasmic ATP-binding and phosphotransferase domains necessary for c-Kit signaling (Ad/c-KitDN) was expressed in KSHV-infected cells using the adenovirus delivery system outlined above.
# KSHV-infected DMVEC [2] = test: XTT-based proliferation assay, response to exogenous SCF; type: cell-based, human
# Method: (§6) Proliferation of mock and KSHV-infected DMVEC, and the SCLC line HTB-172, was quantitated using an XTT-based assay. Cells were added to Primaria 96 well trays (Becton-Dickinson) at 1×104 or 5×10^4 cells/well. […] XTT (Roche, Molecular Biochemicals, Indianapolis, Ind.) was added 48 hours later according to the manufacturers instructions. Absorbance was read after 4 to 6 hours on a microplate reader. The HTB-172 line was obtained from the American Type Culture Collection (ATCC, Rockville, Md.).
# Mock- and KSHV-infected DMVEC were cultured in growth factor depleted medium in the absence and presence of recombinant SCF and proliferation was measured using an XTT-based dye reduction assay^(112).
# SCLC cell lines = details: via inhibition of c-Kit activity; cited from earlier work
# human Jurkat T cell line = test: Proliferation of Jurkat T cell line in response to exogenous IL-2; type: cell-based
# mock-infected DMVEC = test: XTT-based proliferation assay, response to exogenous SCF; type: cell-based, human
# Method: as §6
# To examine whether KSHV-induced up-regulation of c-Kit had functional consequences, we tested whether the mitogenic response of DMVEC to exogenous SCF was enhanced following KSHV infection. Mock- and KSHV-infected DMVEC were cultured in growth factor depleted medium in the absence and presence of recombinant SCF and proliferation was measured using an XTT-based dye reduction assay^(112). […] In mock-infected cultures, the increase over basal proliferation in the […] of recombinant SCF was never more than 40%, while proliferation of KSHV-infected DMVEC was increased by as much as 85%. During KS disease, an enhanced capacity of KSHV-infected endothelial cells to respond to SCF produced by adjacent endothelial cells, or by macrophages and mast cells infiltrating the KS lesion, would promote more rapid growth of virus infected cells.
# [3] = 5 μM Haloperidol for 1 hour prior to PMA addition
compound,measurement,setting,value
Nc1nc2c(nc(N)n2[C@@H]2O[C@H](CO)[C@@H](O)[C@H]2O)c(=O)[nH]1 [8-aminoguanosine],"viral gene expression (K12, ORF 65)",ORF 65 (lytic gene); 10 μM 8-aminoguanosine,no effect
Nc1nc(O)c2ncn(COC(CO)CO)c2n1 [Ganciclovir],latent gene (K12) expression,"K12 (latent gene); compound 1 hour before PMA, 48 hours, concentration not given",did not interfere
same,late gene (ORF 65) expression,ORF 65 (lytic gene),inhibited
O=C(CCCN1CCC(O)(c2ccc(Cl)cc2)CC1)c1ccc(F)cc1 [Haloperidol],induction of the immediate early gene K3,immediate early gene K3,neither compound prevented induction
same,expression of the latent K12 gene,K12 (latent gene); [3],did not affect
same,ORF 65 expression,ORF 65 (lytic gene); [3],significantly reduced
same,completeness of inhibition of late gene expression compared with Ganciclovir,ORF 65 (lytic gene); 5 μM Haloperidol vs 25 μM Ganciclovir,more complete
same,late gene (ORF 65) expression,ORF 65 (lytic gene),inhibited
same,replication of Epstein-Barr Virus in tissue culture,Epstein-Barr Virus (EBV),inhibit
Cc1ccc(NC(=O)c2ccc(CN3CCN(C)CC3)cc2)cc1Nc1nccc(-c2cccnc2)n1 [STI 571],non-specific cytotoxicity (trypan blue exclusion),DMVEC,not due to non-specific cytotoxicity
same,effect on cell morphology or viability,Uninfected DMVEC,no effect
same,focus formation of KSHV-transformed DMVEC,"KSHV-infected DMVEC [1]; STI 571 0.01-10 μM, 5 days, organized monolayer re-established",inhibited
same,drug concentration at which the effect on the transformed phenotype was complete,KSHV-infected DMVEC [1]; dose-dependent,1 µM
same,proliferative response of KSHV-infected DMVEC to exogenous SCF,"KSHV-infected DMVEC [2]; 1 μM dose, SCF 50 ng/ml, XTT assay",completely inhibited
same,growth of SCLC cell lines in vitro,SCLC cell lines,inhibit
same,effect on capacity to proliferate in response to exogenous IL-2,human Jurkat T cell line,no effect
Ht-31: peptide derived from the PKA R-II binding domain of human thyroid AKAP; inhibits AKAP/PKA interactions (WKNVLQGGESTKERFENSNIGTA),induction of the immediate early gene K3,immediate early gene K3,neither compound prevented induction
same,level of K12 RNA,K12 (latent gene); 25 μM,without affecting
same,ORF 65 expression,"ORF 65 (lytic gene); 5 μM Ht-31, PMA induction",efficiently repressed
same,ORF 65 expression,"ORF 65 (lytic gene); 25 μM, PMA induction",inhibited; also recorded: efficiently repressed
same,late gene (ORF 65) expression,ORF 65 (lytic gene),inhibited
"SCF: recombinant stem cell factor, ligand of c-Kit",SCF concentration of maximal dose-dependent proliferation,mock-infected DMVEC; mock-infected DMVEC,50 to 100 ng/mL
same,increase over basal proliferation in the absence of recombinant SCF,"mock-infected DMVEC; mock-infected cultures, exogenous SCF 20-100 ng/ml",≤ 40%
same,SCF concentration of maximal dose-dependent proliferation,KSHV-infected DMVEC [2]; KSHV-infected DMVEC,50 to 100 ng/mL
same,increase over basal proliferation in the absence of recombinant SCF,"KSHV-infected DMVEC [2]; KSHV-infected DMVEC, exogenous SCF 20-100 ng/ml",≤ 85%
